From patent US20130231312A1, “TREATMENT OF TYPE II DIABETES AND DIABETES-ASSOCIATED DISEASES WITH SAFE CHEMICAL MITOCHONDRIAL UNCOUPLERS” (priority 2010, published 2013)

What was measured:
db/db mice [1] = experiment: Chronic oral CSAA treatment of db/db diabetic mice; format: in vivo, mouse
From the text: (§1) The 5-week old db/db mice and the C57/B16 mice were purchased from Jackson Laboratory and housed in the vivarium of UMDNJ-RWJMS. […] For food intake experiments, sets of mice were housed individually in metabolic cages (Nalgene) with free access to food and water. Food cups and food scattered in the runway to the cups were weighed daily to determine food intake. For mouse tissue studies, mice were sacrificed by decapitation, and the tissues of interesting were obtained.
(§2) Blood glucose was determined using OneTouch UltraSmart blood glucose monitoring system (Lifescan), and the insulin levels were measured by ultra sensitive mouse insulin ELISA kit (Crystal Chem Inc.), following the manufacturer's instructions.

[2] = system: C57/B16 mice fed with high-fat diet; experiment: Chronic oral CSAA treatment of high-fat diet induced pre-diabetic mice; format: in vivo, mouse
From the text: as §1, §2

[3] = Chronic I.P. CSAA injection, high-fat diet induced body weight gain and food uptake; format: in vivo; conditions: daily I.P. 100 μg/mouse
From the text: as §1
The other 12 mice were injected daily with vehicle only (PBS). The body weight was measured twice a week and the net body weight gain for each mouse was determined. The average weight gain in each group over the experimental period was plotted. […] The food uptake levels were measured daily with metabolic cages from the day 15 to day 29 and the average daily food uptake of each group was calculated.

NIH-3T3 cells [4] = experiment: Cellular oxygen consumption (BD Oxygen Biosensor System); format: cell-based, mouse
Experimental: (§3) BD™ Oxygen Biosensor System was used to measure the cellular oxygen consumption. NIH-3T3 cells were cultured overnight to log phase, then seeded in oxygen biosensor 96-well plate at the density of 20000 cells per well in DMEM medium. […] Oxygen consumptions (decrease in oxygen concentrations) were indicated by generation of fluorescent signals which were initially quenched by oxygen. Cellular ATP concentrations were measured with the ENLITEN® ATP Assay System and normalized against cell number.

C57/B16 mice = experiment: Glucose uptake assay with 3H 2-deoxyglucose in tissues; format: in vivo; conditions: acute 100 microgram/mouse I.P., 3H-2-deoxyglucose 1.5 hours later
Experimental: 1.5 hours later, ^3H-2-deoxyglucose (0.5 microcurrie/gram of body weight) was injected through I.P. route. 30 minutes later, mice were treated with anesthetics and perfused with PBS. Mice were then sacrificed and tissue was extracted for measurement of ^3H-2-deoxyglucose accumulation (normalized against tissue mass).

[5] = system: high-fat diet induced pre-diabetic C57/B16 mice; experiment: Acute I.P. treatment, blood glucose in high-fat diet induced pre-diabetic mice; format: in vivo; conditions: 100 microgram/mouse I.P., starved 5 hours
From the text: as §1, §2

NIH-3T3 cells [6] = experiment: Mitochondrial membrane potential (TMRE staining) in cultured cells; format: cell-based, mouse
Experimental: For mitochondrial uncoupling activity analysis with the cultured cells, the NIH-3T3 were culture to 90% confluence. […] The cells were then treated with TMRE (Tetramethylrhodamine ethyl ester perchlorate) to a final concentration of 100 nM, incubate for 15 minutes. The cells were then washed twice with PBS, and the pictures were taken under microscope.

AMPK [7] = experiment: Immunoblotting of phosphorylated AMPK in liver after acute I.P. CSAA; format: in vivo; conditions: mouse liver, acute 100 microgram/mouse I.P., 0, 2, 4 hours
Experimental: (§4) Immunoblotting assays were carried out according to standard protocol. The sources of the antibodies are: AMPK antibody (Cell Signaling Technology), Thr-172-phosphorylated AMPK antibody (Cell Signaling Technology), Ran antibody (C-20, Santa Cruz).

[8] = system: C57/B16 mice fed with high-fat diet; experiment: Insulin tolerance assay after chronic oral CSAA; format: in vivo, mouse; conditions: high-fat diet containing 1500 ppm CSAA for 9 weeks
Experimental: (§5) For glucose tolerance tests, mice were starved overnight and injected I.P. with 20% glucose at a dose of 2 g/kg body weight. Blood was obtained from the tail at time points 0, 15, 30, 60, 90, and 120 min for glucose measurement. For insulin tolerance tests, mice were starved for 5 h and injected I.P. with 0.75 U/kg body weight recombinant human insulin (Eli Lilly). Blood was obtained from the tail at time points 0, 15, 30, 60, 90, and 120 min for glucose measurement.

NIH-3T3 cells [9] = experiment: Cellular ATP concentrations (ENLITEN ATP Assay System); format: cell-based, mouse; conditions: CSAA 1 μM
Experimental: as §3

db/db mice [10] = experiment: Acute I.P. CSAA treatment, blood glucose in diabetic db/db mice; format: in vivo; conditions: 100 microgram/mouse I.P.
From the text: as §1, §2

[11] = system: mitochondria isolated from mouse liver; experiment: Mitochondrial uncoupling assay with isolated mitochondria (oxygen consumption, Oxygraph); format: biochemical; conditions: oligomycin 5 μg/ml
Experimental: For mitochondrial uncoupling assay with isolated mitochondria: Mitochondria were isolated from mouse liver. 1.0 mg of mitochondria in a volume of 0.9 ml of respiration buffer was analyzed for oxygen consumption in the presence of mitochondrial substrate as well as the various inhibitors with an Oxygraph System (Hansatech Instrument, Norfolk, UK). The final concentrations of the various chemicals added into the respiration buffer are as follows: succinate, 5 mM; ADP, 125 μM; oligomycin, 5 μg/ml; KCN, 2 mM)

hepatocytes = conditions: high-fat diet containing 1500 ppm CSAA for 10 weeks
From the text: For mouse liver histological study, the mice sacrificed by decapitation. Liver slices were fixed with buffered formalin (Surgipath Medical Industries, Inc.) and embedded in paraffin. Tissue slides were stained with hematoxylin and eosin (H&E) for detection of lipid droplets in tissue samples. Pictures were taken with a Universal Microscope Axioplan 2 imaging system (Carl Zeiss) with phase contrast objectives.

[12] = system: C57/B16 mice fed with high-fat diet; experiment: Glucose tolerance assay after chronic oral CSAA; format: in vivo, mouse; conditions: high-fat diet containing 1500 ppm CSAA for 9 weeks
Experimental: as §5

AMPK [13] = experiment: Immunoblotting of phosphorylated AMPK in liver after chronic oral CSAA; format: in vivo, mouse; conditions: mice under high-fat diet
Experimental: as §4

[14] = among the first 100,000 persons treated; cited from earlier work
mitochondria = conditions: cited from earlier work
[15] = high-fat diet containing 1500 ppm CSAA for 8 weeks
[16] = NIH-3T3 cells, 2 hours treatment, TMRE
[17] = stated for both mouse strains (FIG. 1)

NCCO.O=C(Nc1ccc([N+](=O)[O-])cc1Cl)c1cc(Cl)ccc1O [CSAA, 5-chloro-salicyl-(2-chloro-4-nitro) anilide 2-aminoethanol salt]
food intake rates versus mice fed normal food (db/db mice [1]; 1500 ppm in food): not significantly different | body weight and adiposity versus control mice (db/db mice [1]; oral CSAA (data not shown)): not different from the control mice | fasting blood glucose levels versus non-CSAA treated mice at later time (db/db mice [1]; oral treatment beyond two weeks (data not shown)): remained significantly lower | fasting blood glucose (db/db mice [1]; two week oral treatment, 1500 ppm in AIN-93M food): reduced the fasting blood glucose of the db/db mice to almost normal levels | fasting blood glucose [2, 15]: completely prevented the increase of fasting blood glucose | fasting insulin concentrations versus control group [2, 15]: significantly lower | food uptake ([2]; high-fat diet containing 1500 ppm CSAA, weeks 7 to 8): no effect | body weight and adiposity versus control mice ([2]; high-fat diet with oral CSAA (data not shown)): not different from the control mice | food uptake rate versus vehicle group ([3]; day 15 to day 29): higher food uptake rate | weight gain induced by high-fat diet ([3]; mice aged 8 months on high-fat diet): reduces the weight gain | cellular oxygen consumption (NIH-3T3 cells [4]; CSAA 1 μM): dramatically stimulated | effect of oligomycin co-treatment on CSAA-stimulated oxygen consumption (NIH-3T3 cells [4]; CSAA 1 μM and oligomycin 5 μg/ml): did not significantly affect | glucose uptake rates in liver, muscles, kidney, and lungs (C57/B16 mice): significantly increased | effect on blood glucose concentration (hypoglycemic activity) [5]: dramatic decrease in blood glucose concentration | earliest time at which dissipation of mitochondrial membrane potential is seen (NIH-3T3 cells [6]; NIH-3T3 cells, 2 μM CSAA): 5 min | concentration at which reduction of mitochondrial membrane potential starts (NIH-3T3 cells [6]; [16]): 500 nM | concentration for full uncoupling of mitochondria (NIH-3T3 cells [6]; [16]): around 5 micromolar | concentration range at which mitochondria are uncoupled in cultured cells (NIH-3T3 cells [6]; cultured cells): high nanomolar to low micromolar range | levels of the phosphorylated AMPK (AMPK [7]): dramatically increased | insulin sensitivity by insulin tolerance assay [8]: significantly increased insulin sensitivity | steady-state ATP concentrations in cells (NIH-3T3 cells [9]): does not affect | time after treatment at which blood glucose concentrations were lowered (db/db mice [10]; [17]): ~1 h | time until which blood glucose lowering remained effective (db/db mice [10]; [17]): about 4 hours | reduction in blood glucose as compared to the control (db/db mice [10]; db/db mice, starved 5 hours): 30% | mitochondrial oxygen consumption in the presence of oligomycin [11]: still effectively promoted mitochondrial oxygen consumption | lipid load in hepatocytes (hepatocytes): dramatically reduced | insulin sensitivity by glucose tolerance assay [12]: significantly increased insulin sensitivity | AMPK activity in liver (AMPK [13]): chronically elevated

O=[N+]([O-])c1ccc(O)c([N+](=O)[O-])c1 [DNP, 2,4-dinitrophenol]
fatalities due to hyperthermia [14]: two fatalities | concentrations at which the mitochondrial uncoupler functions (mitochondria): mini molar concentrations
